The target in experiment [1] is T1, PKC isoenzyme ζ (Homo sapiens, UniProt Q05513).
T1 construct: made in house; host or cells: baculovirus-insect cell expression system
T1 sequence (Q05513 1-592): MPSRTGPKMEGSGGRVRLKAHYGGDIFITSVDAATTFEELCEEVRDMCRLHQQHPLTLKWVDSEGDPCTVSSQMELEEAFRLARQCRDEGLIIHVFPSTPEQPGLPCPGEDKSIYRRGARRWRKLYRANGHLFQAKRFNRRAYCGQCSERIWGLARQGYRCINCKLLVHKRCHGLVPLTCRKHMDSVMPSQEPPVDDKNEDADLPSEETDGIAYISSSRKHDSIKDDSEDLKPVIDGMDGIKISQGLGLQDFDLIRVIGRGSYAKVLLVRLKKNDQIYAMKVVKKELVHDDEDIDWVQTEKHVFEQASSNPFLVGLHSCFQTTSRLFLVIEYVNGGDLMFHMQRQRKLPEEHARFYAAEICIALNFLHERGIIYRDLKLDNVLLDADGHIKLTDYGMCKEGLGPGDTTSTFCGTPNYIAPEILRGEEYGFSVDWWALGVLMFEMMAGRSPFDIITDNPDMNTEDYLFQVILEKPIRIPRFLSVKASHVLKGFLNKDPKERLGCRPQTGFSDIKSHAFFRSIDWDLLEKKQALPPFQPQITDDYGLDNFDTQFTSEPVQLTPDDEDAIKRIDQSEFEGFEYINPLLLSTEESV
As to the kind of experiment: Protein kinase C inhibition assay, PKC isoenzyme ζ. It is filed as biochemical. The settings on record: read-out: IC50 PKC .zeta. The procedure: (§1) A protein kinase C (PKC) assay is designed to duplicate the in vivo conditions required for protein kinase C function. Therefore, pH, salt and cofactor concentrations are similar to physiologic levels. Either lysine rich histone H1 (H1) or Myelin basic protein (Mbp) are used in the assay as the phosphorylation acceptor-protein because they are readily available and serve as good substrates for protein kinase C. Enzyme was prepared from baculovirus-insect cell expression systems.
(§2) In the screening assay, phosphatidylserine (PS) and DAG were co-sonicated to form unilamellar and multilamellar vesicles. The concentration of lipids in the assay were suboptimal to maximize the detection potential of the assay for inhibitors or activators. Potential effector compounds were added to the assay in dimethylsulfoxide at four concentrations to give final inhibitor concentrations of 1, 10, 50, and 150 μM, respectively.
(§3) The assay was started with the addition of enzyme and stopped after 10 min by the addition of 25% trichloroacetic acid (TCA) and 1.0 mg/ml bovine serum albumin (BSA). The radioactive histone product was retained and washed on glass fiber filters that allow the unreacted P-ATP to pass through. The amount of phosphorylation was determined by measuring radioactivity with a scintillation counter. Controls were included in every assay to measure background activity in the absence of enzyme, activity in the absence of lipids, and the maximum enzyme activity with saturating levels of the activator lipids.
(§4) Results of the protein kinase C assay are shown in Table 4 in columns labeled α, βII, γ, δ, ε, and .zeta. which represent various PKC isoenzymes. Results are show as IC50, which is the concentration of test compound needed to inhibit 50% of the protein kinase C activity in controls.

The target in experiment [2] is T2, PKC isoenzyme γ (Homo sapiens, UniProt P05129).
T2 construct: made in house; host or cells: baculovirus-insect cell expression system
Description: Protein kinase C inhibition assay, PKC isoenzyme γ. Format: biochemical. The following applies: read-out: IC50 PKC γ. How it is done:
as §1, §2, §3, §4

The target of experiment [3] is T3, PKC isoenzyme βII (Homo sapiens, UniProt P05771).
T3 construct: made in house; host or cells: baculovirus-insect cell expression system
Description: Protein kinase C inhibition assay, PKC isoenzyme βII. Format: biochemical. The following applies: read-out: IC50 PKC βII. How it is done: as §1, §2, §3, §4

For experiment [4], the target named is T4, PKC isoenzyme α (Homo sapiens, UniProt P17252).
T4 construct: made in house; host or cells: baculovirus-insect cell expression system
Description: Protein kinase C inhibition assay, PKC isoenzyme α. It is filed as biochemical. The following applies: read-out: IC50 PKC α. How it is done: as §1, §2, §3, §4

The target of experiment [5] is T5, PKC isoenzyme δ (Homo sapiens, UniProt Q05655).
T5 construct: made in house; host or cells: baculovirus-insect cell expression system
As to the kind of experiment: Protein kinase C inhibition assay, PKC isoenzyme δ. Format: biochemical. The following applies: read-out: IC50 PKC δ. How it is done: as §1, §2, §3, §4

Experiment [6] has as its target T6, PKC isoenzyme ε (Homo sapiens, UniProt Q02156).
T6 construct: made in house; host or cells: baculovirus-insect cell expression system
T6 sequence (Q02156 1-737): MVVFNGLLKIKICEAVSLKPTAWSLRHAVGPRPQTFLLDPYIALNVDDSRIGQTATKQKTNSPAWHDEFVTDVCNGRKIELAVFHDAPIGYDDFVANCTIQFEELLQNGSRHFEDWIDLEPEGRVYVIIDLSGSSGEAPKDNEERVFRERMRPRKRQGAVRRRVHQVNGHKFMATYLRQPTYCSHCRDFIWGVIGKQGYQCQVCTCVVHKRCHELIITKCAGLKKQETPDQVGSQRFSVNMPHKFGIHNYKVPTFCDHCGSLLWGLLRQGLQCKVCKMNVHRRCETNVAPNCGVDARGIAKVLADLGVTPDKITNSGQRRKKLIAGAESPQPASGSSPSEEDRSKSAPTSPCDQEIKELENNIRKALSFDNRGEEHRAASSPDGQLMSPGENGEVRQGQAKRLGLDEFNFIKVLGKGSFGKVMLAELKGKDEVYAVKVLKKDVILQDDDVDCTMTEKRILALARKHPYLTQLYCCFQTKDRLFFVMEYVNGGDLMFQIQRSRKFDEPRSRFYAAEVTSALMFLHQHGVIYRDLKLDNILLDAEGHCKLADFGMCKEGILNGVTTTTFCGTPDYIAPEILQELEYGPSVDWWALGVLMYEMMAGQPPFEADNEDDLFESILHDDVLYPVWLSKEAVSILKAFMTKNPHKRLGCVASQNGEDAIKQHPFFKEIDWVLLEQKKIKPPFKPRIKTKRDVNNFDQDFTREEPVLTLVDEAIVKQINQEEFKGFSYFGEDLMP
Description: Protein kinase C inhibition assay, PKC isoenzyme ε. Format: biochemical. The following applies: read-out: IC50 PKC ε. The procedure:
as §1, §2, §3, §4

The subject of experiment [7] is normal human epidermal keratinocyte (NHEK) cells. Description: Human Keratinocyte Inhibition (3H TdR Assay). It is filed as cell-based. The following applies: Homo sapiens, 24 h incubation, 3H-thymidine. The procedure: Proliferating normal human epidermal keratinocyte (NHEK) cells were obtained in the second passage and grown in keratinocyte growth medium, KGM (Clonetics, Inc.) at 37° C., 5% CO2. The cells were trypsinized (0.25%), centrifuged, counted with a hemocytometer, and seeded at a concentration of 5000 cells in 100 μl well in a 96-well microtiter plate.
After the cells were allowed to attach to the microtiter plate overnight, test agents were titrated to determine the dose response. This was done by adding each test agent dilution in quadruplicate to the plate at 2× final concentration in 100 μl to bring the total volume of each well to 200 μl. Culture media with no test agent added was used as a normal control. Duplicate sets of plates were established.
After twenty-four hours of incubation with test compounds 37° C. and 5% CO2, […] of 0.01 mCi/ml tritiated thymidine (New England Nuclear) was added to each well and allowed to incubate for another 4 hours under the same conditions.
Supernatant was aspirated and discarded and […] of 0.05% trypsin (Gibco) was added to each cell. Cells were checked microscopically to determine detachment from surfaces and then harvested onto glass filters. The filters were then placed in vials to which scintillant was added and counted for one minute each in a scintillation counter.
Determine mean cpm of wells containing test agent (n=4) or KGM control (n=16). Calculate % of control by the formula: [formula]
The IC50, or connection necessary to inhibit 50% of control, of each test agent was determined by plotting % control vs log concentration for each dilution and then linear forecasting the 50% control value onto the X axis on a Quatro Pro computer program. Only regression values with a correlation coefficient greater than 0.9 were considered acceptable.

Experiment [8] concerns the target cAMP dependent protein kinase (PKA). Description: cAMP Dependent Protein Kinase (PKA) Assay. The following applies: for IC50: catalytic subunit of PKA. Format: biochemical. How it is done: Compounds found to be inhibitors of protein kinase C were tested for inhibitory activity against cAMP dependent protein kinase (PKA). This enzyme, like protein kinase C, plays an important role in cell-cell communication and is activated by a second messenger, cAMP. Secondary screening against PKA is useful for ascertaining the selectivity of the compounds of the invention.
The catalytic subunit of PKA (Sigma Chemical Company, St. Louis, Mo.) was mixed with buffer before addition of the inhibitor in dimethylsulfoxide (DMSO). Potential inhibitor compounds were added to the assay in dimethylsulfoxide at two concentrations to give final inhibitor concentrations of 30 and 150 μM, respectively. The assay was started by the addition of ^32 P-ATP and the reaction was allowed to proceed for 10 min before stopping with 25% trichloroacetic acid (TCA) and 1.0 mg/ml bovine serum albumin (BSA). Phosphorylated protein was then isolated by filtration and the radioactivity was counted by a beta scintillation counter.

A value given as a limit tells only on which side of the number the result lay.

T3 sequence (P05771 1-673 isoform P05771-2): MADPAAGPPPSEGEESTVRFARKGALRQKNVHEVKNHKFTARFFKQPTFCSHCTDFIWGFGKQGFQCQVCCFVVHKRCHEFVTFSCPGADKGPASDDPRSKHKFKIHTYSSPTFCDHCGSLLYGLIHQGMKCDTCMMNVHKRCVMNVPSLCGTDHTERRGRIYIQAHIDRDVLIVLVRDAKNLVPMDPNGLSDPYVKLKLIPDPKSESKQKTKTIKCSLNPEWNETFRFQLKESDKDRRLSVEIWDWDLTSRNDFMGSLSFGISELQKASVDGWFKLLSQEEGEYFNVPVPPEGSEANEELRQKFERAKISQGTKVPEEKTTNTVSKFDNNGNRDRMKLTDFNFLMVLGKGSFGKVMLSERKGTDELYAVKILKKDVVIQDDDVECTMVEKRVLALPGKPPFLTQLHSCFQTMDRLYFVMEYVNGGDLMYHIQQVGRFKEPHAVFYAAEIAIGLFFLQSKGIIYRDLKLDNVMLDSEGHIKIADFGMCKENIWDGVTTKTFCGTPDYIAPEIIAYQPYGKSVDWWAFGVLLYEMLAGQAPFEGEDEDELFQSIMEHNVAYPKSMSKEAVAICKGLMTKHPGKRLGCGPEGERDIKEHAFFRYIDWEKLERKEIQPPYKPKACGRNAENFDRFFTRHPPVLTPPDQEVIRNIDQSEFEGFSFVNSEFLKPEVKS
T5 sequence (Q05655 whole entry): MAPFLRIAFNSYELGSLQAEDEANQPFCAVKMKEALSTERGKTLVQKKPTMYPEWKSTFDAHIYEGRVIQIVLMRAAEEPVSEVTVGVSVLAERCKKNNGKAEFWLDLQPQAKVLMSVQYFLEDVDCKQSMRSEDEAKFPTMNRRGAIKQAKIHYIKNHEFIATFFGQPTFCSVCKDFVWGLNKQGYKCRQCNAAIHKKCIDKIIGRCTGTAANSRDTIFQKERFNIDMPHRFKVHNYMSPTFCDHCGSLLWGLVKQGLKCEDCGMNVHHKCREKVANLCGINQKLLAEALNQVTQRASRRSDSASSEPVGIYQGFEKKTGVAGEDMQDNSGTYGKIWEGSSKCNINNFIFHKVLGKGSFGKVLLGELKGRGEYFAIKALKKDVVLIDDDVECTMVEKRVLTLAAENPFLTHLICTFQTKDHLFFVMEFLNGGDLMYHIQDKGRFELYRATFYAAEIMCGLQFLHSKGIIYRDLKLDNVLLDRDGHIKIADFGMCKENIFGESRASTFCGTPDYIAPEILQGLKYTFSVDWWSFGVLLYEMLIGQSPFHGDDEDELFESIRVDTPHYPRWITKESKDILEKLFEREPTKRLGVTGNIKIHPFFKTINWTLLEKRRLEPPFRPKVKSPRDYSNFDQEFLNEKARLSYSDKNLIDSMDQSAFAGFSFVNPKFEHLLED

As a reminder, the IC50 is the concentration at which inhibition is half-maximal. Turning to `Cc1cc(C)nc(NS(=O)(=O)c2ccc(N=C3C=C(Nc4ccc(S(=O)(=O)Nc5cc(C)cc(C)n5)cc4)C(=O)c4ccccc43)cc2)c1` [Compound 3aj], the IC50 in experiment [1] was above 150 µM; in experiment [2], 88 µM; in experiment [3], above 150 µM; in experiment [4], 90 µM; in experiment [5], above 150 µM; in experiment [6], above 150 µM.

On to `O=C1C(Nc2ccc(S(=O)(=O)Nc3ncccn3)cc2)=CC(=Nc2ccc(S(=O)(=O)Nc3ncccn3)cc2)c2ccccc21` [Compound 3k], for which the IC50 in experiment [1] is 37 µM; in experiment [2], 24 µM; in experiment [3], above 150 µM; in experiment [4], 113 µM; in experiment [7] it was 1.8 µM; in experiment [8] it was 111 µM. The half-inhibitory concentration (IC50) in experiment [5] and in experiment [6] was above 150 µM each time.

Consider `CCCCCCCCCCCCCCCCNS(=O)(=O)c1ccc(N=C2C=C(Nc3ccc(S(=O)(=O)NCCCCCCCCCCCCCCCC)cc3)C(=O)c3ccccc32)cc1` [Compound 3o], for which the 50% inhibitory concentration (IC50) in experiment [1] is 26 µM; in experiment [2], 118 µM; in experiment [3], 138 µM; in experiment [4], 117 µM; in experiment [7], 3.8 µM; in experiment [8], above 150 µM. The IC50 in experiment [5] is 139 µM; in experiment [6] it was above 150 µM. Moreover, in experiment [8] (result in words), the “effect on PKA activity” value was “did not effect on PKA activity”.

(Values after patent US5292737A, “N,N'-bis(sulfonamido)-2-amino-4-iminonaphthalen-1-ones and N,N'-bis(amido)-2-amino-4-iminonaphthalen-1-ones” (Sphinx Pharmaceuticals Corporation, priority 1992, dated 1994).)
